From patent US7704987B1, “β-amyloid peptide inhibitors” (Prana Biotechnology Ltd, priority 1999, dated 2010)

Assays:
[1] = test system: Aβ deposited in the brains of Alzheimer's disease patients; assay: Brain tissue assay: solubilisation of Aβ deposits from post-mortem AD brain (Western blot); parameters: species or system human; conditions: post-mortem brain homogenate in PBS, 24 h at room temperature, Western blot (FIG. 7); compound concentrations as in Table 1
Protocol: Post-mortem tissues, stored at −80° C., were obtained from the NH&MRC-supported Brain Bank at the University of Melbourne, together with accompanying histopathological and clinical data. AD was assessed according to CERAD criteria (Mirra et al, 1991).
Compounds were dissolved in DMSO and diluted in a PBS mixture. Insoluble material was removed.
The cortical meninges were removed and gray matter (0.5 g) was homogenised using a DIAX 900 homogeniser (Heidolph & Co, Kelheim, Germany) for 3×30 s periods at full speed, with a 30 s rest between strokes, in 3 ml of ice-cold phosphate-buffered saline (PBS), pH 7.4, containing a mixture of protease inhibitors (BioRad, Hercules, Calif.), but without ethylene diamine tetraacetic acid (EDTA), or in the presence of test compounds or metal ions prepared in PBS. The homogenate samples were incubated for 24 h at room temperature. To obtain the PBS-extractable fraction, the homogenate was centrifuged at 100,000×g for 30 min, the supernatant removed, and divided into 1 ml aliquots. Protein in a 1 ml supernatant sample was precipitated using 1:5 ice-cold 10% trichloracetic acid (TCA), and pelleted by centrifugation at 10,000×g for 20 mins. The pellet was prepared for PAGE by boiling for 10 min in Tris-tricine SDS-sample buffer containing 8% SDS, 10% mercaptoethanol and 8M urea. Total Aβ in the cortical samples was obtained by homogenizing in 1 ml PBS and boiling in sample buffer as described above.
Tris-tricine PAGE was performed by loading samples on to 10-20% gradient gels (Novex, San Diego, Calif.), followed by transfer on to 0.2 mm nitrocellulose membrane (BioRad, Hercules, Calif.). The Aβ was detected using the following monoclonal antibodies: W02, which detects Aβ40 and Aβ42 at an epitope between residues 5 and 8; G210, which is specific for Aβ species which terminate at carboxyl residue 40; or G211, which is specific for Aβ species which terminate at carboxyl residue 42 (Ida et al, 1996), in conjunction with horseradish peroxidase(HRP)-conjugated rabbit anti-mouse IgG (Dako, Denmark), and visualised using chemiluminescence (ECL, Amersham Life Science, UK). Each gel included two or more lanes containing known quantities of synthetic Aβ (Keck Laboratory, Yale University New Haven, Conn.) as reference standards. Blot films were scanned using a Relisys scanner with transparency adapter (Tech Information Systems, Taiwan) and densitometry performed using Image 1.6 software (NIH, Bethesda, Mass.). All samples were analysed at least twice, and gel loadings and dilutions adjusted to fit within the quantifiable region of the standard curve.

Aβ1-28 = biological target: T1, Aβ1-28 (Homo sapiens, UniProt P05067); assay: 1H NMR reaction of compound with Aβ1-28; format: binding; conditions: ~1 equivalent, 24 hrs in DMSO; 600 MHz 1H NMR, pH 6.9, 271 K
T1 construct: adding two equivalents of Cu^2+ to Aβ1-28
Protocol: 1.8 mgs of Aβ1-28 was dissolved in 5 mls DMSO was mixed with 0.33 mgs of compound KJB001 (˜1 equivalent) dissolved in 0.3 mls DMSO. The mixture was allowed to stand for 24 hrs before being freeze-dried. The resulting blue powder was dissolved in 550 μl of an aqueous solution containing 100 mM NaCl, 50 mM phosphate buffer, pH 6.9. A solution of 1.8 mgs Aβ1-28 dissolved in 550 μl of the same solution was used as a control.

[2] = test system: cerebral cortical neuron cultures; assay: LDH assay for cell death: inhibition of Aβ1-42 neurotoxicity in vitro; format: cell-based; conditions: treatment alone; LDH release compared to untreated control cultures; 5 days; KJB030 dialysed, at most 20 μM; Aβ1-42 20 μM
Protocol: Compound KJB030 was dissolved in chelex 100-treated double distilled H2O (CH100-dH2O) at a concentration of 200 μM. Aβ1-42 was dissolved in either 200 μm KJB030 solution or in CH100-dH2O. Both solutions contained 200 μM Aβ1-42. The Aβ1-42 solutions were incubated at ambient temperature (˜20-24° C.) for 3 days. The solutions were then brought to a physiological state by adding 10× phosphate buffered saline (PBS), pH 7.4, thus bringing samples to 1×PBS. Samples were then incubated at 37° C. for 24 hr to induce aggregation of Aβ1-42. Samples were subsequently dialysed in microdialysis cups (3500 Mr cut-off) placed in 5 L PBS for 24 hr, in order to remove some of the excess KJB030 without loss of Aβ1-42.
Dialyzed samples were added to six day old cerebral cortical neuron cultures growing in Neurobasal medium with B27 supplements but without anti-oxidants (Gibco). Samples were diluted into the culture medium to a final concentration of 20 μM Aβ1-42. […]
Determination of cell death was performed using the lactate dehydrogenase (LDH) assay kit (Boehringer Mannheim). […] Culture medium was mixed with the reagents from the LDH kit as per the manufacturer's instructions and the level of LDH measured colourimetrically on a spectrophotometric 96 well plate reader at 490 nm.

T1 sequence (P05067 672-699): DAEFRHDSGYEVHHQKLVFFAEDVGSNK

Molecule | ability to solubilise Aβ deposited in the brains of Alzheimer's disease patients [1] | reaction with His6, His13, His14 of Aβ1-28 (shift of histidine C2H peaks) (Aβ1-28) | % cell death [2] [%]
C1=Cc2nc1c(-c1ccccc1)c1ccc([nH]1)c(-c1ccccc1)c1nc(c(-c3ccccc3)c3ccc([nH]3)c2-c2ccccc2)C=C1.[Cl-].[Cl-].[Cl-].[Mn+3] [KJB007, 5,10,15,20-tetraphenyl-21H,23H-porphine manganese(III) chloride] | good activity |  | 
CC(C)(C)c1cc(C=N[C@H]2CCCC[C@@H]2N=Cc2cc(C(C)(C)C)cc(C(C)(C)C)c2[O-])c([O-])c(C(C)(C)C)c1.[Cl-].[Mn+3] [KJB002, (S,S)-(+)-N-N′-bis(3,5-di-tert-butylsalicylidene)-1-2-cyclohexane diamino manganese(III) chloride] | good activity |  | 
[Co+2].c1ccc2c(c1)-c1nc-2nc2[n-]c(nc3nc(nc4[n-]c(n1)c1ccccc41)-c1ccccc1-3)c1ccccc21 [KJB001, Co(II) phthalocyanine β-form] | particularly strong solubilising activity | had reacted with these residues | 
Aβ1-42: β-amyloid peptide 1-42, the neurotoxic agent in the LDH assay |  |  | 22 ± 3.5
[Mn+2].c1ccc2c(c1)-c1nc3nc(nc4[n-]c(nc5[n-]c(nc-2n1)c1ccccc51)c1ccccc41)-c1ccccc1-3 [KJB006, Manganese(II) phthalocyanine] | good activity |  | 
